Where “and” joins values, the source holds several entries; their conditions need not be identical. Equal values may be shown once.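 Tested at 5 concentrations; 48 h exposure; 96-well plates; endpoints linearly interpolated, else capped at highest concentration. GI50 = concentration required for 50% inhibition of growth. TGI: concentration producing complete growth inhibition.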
Tests used:
Experiment in all cases: NCI tumour cell line growth inhibition, 48 h
SF-295 CNS = test system: SF-295 CNS
RPMI-8226 leukemia = test system: RPMI-8226 leukemia
SW-620 colon = test system: SW-620 colon
BT-549 breast = test system: BT-549 breast
MCF7 breast = test system: MCF7 breast
U251 CNS = test system: U251 CNS
M14 melanoma = test system: M14 melanoma
OVCAR-4 ovarian = test system: OVCAR-4 ovarian
TK-10 renal = test system: TK-10 renal
HCC-2998 colon = test system: HCC-2998 colon

SMILES	GI50 (SF-295 CNS)	TGI (SF-295 CNS)	GI50 (RPMI-8226 leukemia)	TGI (RPMI-8226 leukemia)	GI50 (SW-620 colon)	TGI (SW-620 colon)	GI50 (BT-549 breast)	TGI (BT-549 breast)	GI50 (MCF7 breast)	TGI (MCF7 breast)	GI50 (U251 CNS)	TGI (U251 CNS)	GI50 (M14 melanoma)	TGI (M14 melanoma)	GI50 (OVCAR-4 ovarian)	TGI (OVCAR-4 ovarian)	GI50 (TK-10 renal)	TGI (TK-10 renal)	GI50 (HCC-2998 colon)	TGI (HCC-2998 colon)
N#Cc1c(NCc2ccccc2)nc(NCc2ccccc2)c(C#N)c1-c1cccc(O)c1	2.92 µM	13.2 µM	3.11 µM	22.6 µM	4.49 µM	68.2 µM	10.1 µM	35.8 µM	12.7 µM	88.4 µM	4.02 µM	15.4 µM	6.65 µM	> 100 µM	23.6 µM	> 100 µM	4.11 µM	17.4 µM	95.5 µM	> 100 µM
O=C(Nc1ccc(-c2ccnc(Nc3ccc(N4CCOCC4)cc3)n2)cc1)C1CCCN1 (configuration not stated)	4.18 µM	20.4 µM	4.61 µM	24.7 µM	6.14 µM	25.1 µM	8.76 µM	23 µM	4.51 µM	21.4 µM	3.05 µM	21.6 µM	7.23 µM	22.8 µM	12.2 µM	43.1 µM	9.35 µM	33.6 µM	11.3 µM	25 µM
C[C@H]1CC2=CC(=O)CC[C@]2(C)[C@H]2CC[C@@]3(C)[C@@H](CC[C@]3(C)O)[C@H]12	21.4 µM	62.5 µM	7.58 µM	38 µM	35.8 µM	> 100 µM	24.7 µM	71.9 µM	24.9 µM	> 76.7 µM	31 µM	> 100 µM	27.2 µM	> 78.9 µM	38 µM	> 100 µM	31.5 µM	97.5 µM	43.8 µM	> 100 µM
CCCNc1cccc(-n2ncc3c(N/N=C/c4ccncc4)ncnc32)c1	3.58 µM	> 25 µM	> 25 µM	> 25 µM	> 6.13 µM	> 25 µM	> 8.4 µM	> 25 µM	> 5.61 µM	> 25 µM	17 µM	> 25 µM	1.69 µM	> 25 µM	> 9.88 µM	> 25 µM	2.37 µM	> 25 µM	> 25 µM	> 25 µM
CCN(CC)CCOc1nc2cc(OC)c(OC)cc2c2c1-c1ccc(OC)cc1C2=O	0.117 µM	0.597 µM	3.26 µM	19.6 µM	1.21 µM	2.68 µM	15.7 µM	29.5 µM	0.697 µM	17.3 µM	2.42 µM	18.7 µM	11.7 µM	24 µM	13.9 µM	33.5 µM	16.1 µM	29.6 µM	14.3 µM	27.6 µM
CS(=O)(=O)Nc1cc(-c2ccc3ncnc(Nc4cccc(Cl)c4F)c3c2)cnc1Cl	2.47 µM	12.5 µM	2.21 µM	6.11 µM	3.31 µM	37.7 µM	1.84 µM	7.65 µM	0.624 µM	20.1 µM	2.45 µM	14.9 µM	3.17 µM	17 µM	5.82 µM	> 100 µM	1.77 µM	8.73 µM	1.66 µM	5.01 µM
N#Cc1ccc2c(c1)C(=O)c1c-2n(CCCN=[N+]=[N-])c(=O)c2cc([N+](=O)[O-])ccc12	8 µM	> 50 µM	21.3 µM	> 50 µM	3.5 µM	> 50 µM	5.49 µM	> 50 µM	1.35 µM	> 50 µM	4.49 µM	> 50 µM	29.9 µM	> 50 µM	> 50 µM	> 50 µM	> 50 µM	> 50 µM	> 50 µM	> 50 µM
COc1cc(/C=C\c2cc(OC)c(OC)c(OC)c2)cc(NS(=O)(=O)c2cccc(Cl)c2)c1OC	0.0453 µM	> 100 µM	0.0597 µM	> 100 µM	0.0438 µM	> 100 µM	0.0338 µM	2.46 µM	0.0533 µM	> 100 µM	0.0482 µM	> 100 µM	0.0344 µM	> 100 µM	0.248 µM	> 100 µM	2.01 µM	> 100 µM	0.313 µM	60.6 µM
Cc1cc(Cl)ccc1NC(=O)NC(C)(C)COC(=O)Nc1cccc(Cl)c1	0.945 µM	8.31 µM	3.26 µM	15.3 µM	7.45 µM	> 100 µM	21.4 µM	> 100 µM	2.49 µM	24.4 µM	4.56 µM	19.3 µM	8.38 µM	> 100 µM	6.55 µM	90.6 µM	8.86 µM	> 100 µM	11.3 µM	> 100 µM
O=[N+]([O-])c1ccc(NC(=S)N/N=C(\c2ccccc2)c2ccccn2)cc1	1.87 µM	3.5 µM and 2.98 µM	1.2 µM	5.6 µM and > 27 µM	0.0303 µM	1.93 µM and 2.35 µM		3.01 µM	0.0393 µM	1.55 µM and 2.75 µM		3 µM and 2.68 µM	1.38 µM	2.33 µM and 2.77 µM		3.42 µM and 3.51 µM		2.51 µM	2.1 µM	4.26 µM and 2.83 µM
Cc1c(N)nc(C(CC(N)=O)NCC(N)C(N)=O)nc1C(=O)NC(C(=O)NC(C)C(O)C(C)C(=O)NC(C(=O)NCCc1nc(-c2nc(C(=O)NCCCNCCCCN)cs2)cs1)C(C)O)C(OC1OC(CO)C(O)C(O)C1OC1OC(CO)C(O)C(OC(N)=O)C1O)c1cnc[nH]1 (configuration not stated)	0.603 µg/mL and 0.261 µg/mL	12 µg/mL and 4.04 µM	13.3 µg/mL	> 10 µM	25.2 µg/mL	> 10 µM	13.7 µg/mL		3.08 µg/mL		8.06 µg/mL	> 10 µM	9.31 µg/mL	> 10 µM		> 10 µM	19.4 µg/mL	> 10 µM		> 10 µM
O=c1[nH]cnc2nc(-c3ccc(N(CCCl)CCCl)cc3)[nH]c12	1.57 µM	6.5 µM	> 100 µM	> 100 µM	6.46 µM	> 100 µM	84.8 µM	> 100 µM	> 100 µM	> 100 µM	20.1 µM	> 100 µM	4.97 µM	> 100 µM	20.1 µM	> 100 µM	15.4 µM	48.4 µM	4.76 µM	> 100 µM
N#Cc1ncc(N2C(=O)C3(CCC3)N(c3ccc(OC4CCNCC4)nc3)C2=S)cc1C(F)(F)F	16.1 µM	31.5 µM	11.5 µM	32 µM	14.7 µM	29.5 µM	12.9 µM	26 µM	11.5 µM	26.4 µM	20.2 µM	48.7 µM	7.31 µM	20.6 µM	18.2 µM	44.4 µM	17.9 µM	39.1 µM	15.6 µM	31.2 µM
CC(=O)Nc1cc2cc(NS(=O)(=O)c3cc(C(F)(F)F)cc(C(F)(F)F)c3)ccc2oc1=O		> 100 µM		> 100 µM		> 100 µM		> 100 µM		> 100 µM		> 100 µM		> 100 µM		> 100 µM		> 100 µM		> 100 µM
Cc1ccc(S(=O)(=O)c2ccsc2N)cc1	> 100 µM	> 100 µM	95.4 µM	> 100 µM	> 100 µM	> 100 µM	> 100 µM	> 100 µM	> 100 µM	> 100 µM	> 100 µM	> 100 µM	> 100 µM	> 100 µM	58.3 µM	> 100 µM	> 100 µM	> 100 µM	> 100 µM	> 100 µM
Cc1nn2c(/C=C3\C(=O)Nc4ccccc43)c(C)nc2s1	29.1 µM	> 100 µM	49 µM	> 100 µM	8.87 µM	> 100 µM	> 100 µM	> 100 µM	7.46 µM	> 100 µM	71.9 µM	> 100 µM	12.3 µM	> 100 µM	> 100 µM	> 100 µM	88.7 µM	> 100 µM	13.7 µM	> 100 µM
C[C@]12CC[C@H]3[C@@H](CCC4=C[C@@H](OC5OCC(OC6OC(CO)C(O)C(O)C6O)C(O)C5O)CC[C@@]43C=O)[C@@]1(O)CCC2C1=CC(=O)OC1 (some centres not stated)		3.53 µM		2.75 µM		9.23 µM		0.881 µM		> 100 µM		8.84 µM		2.79 µM		1.07 µM		8.19 µM		1.38 µM
O=c1oc2cc(OS(=O)(=O)c3ccccc3)ccc2c2c1CCCCC2	> 100 µM	> 100 µM	3.58 µM	> 100 µM	4.89 µM	> 100 µM	5.44 µM	> 100 µM	5.14 µM	> 100 µM	4.51 µM	> 100 µM	8.8 µM	> 100 µM	4.58 µM	> 100 µM	> 100 µM	> 100 µM	32.1 µM	> 100 µM

Reference: PubChem BioAssay (NCI)
